Experimental data taken from US9834513B2, “Benzylamine derivatives” (KALVISTA PHARMACEUTICALS LIMITED, priority 2013, dated 2017).

What was measured:
diabetic rats = details: cited from earlier work
trypsin = trypsin (Homo sapiens, UniProt P07477); experiment: Determination of enzyme selectivity: trypsin; format: biochemical; details: substrate at Km concentration
Experimental: Human serine protease enzymes plasmin, thrombin, trypsin, Factor Xa and Factor XIIa were assayed for enzymatic activity using an appropriate fluorogenic substrate. Protease activity was measured by monitoring the accumulation of liberated fluorescence from the substrate over 5 minutes. The linear rate of fluorescence increase per minute was expressed as percentage (%) activity. The Km for the cleavage of each substrate was determined by standard transformation of the Michaelis-Menten equation.

Human KLK1 = Human KLK1 (Homo sapiens (Human), UniProt P06870); experiment: Determination of the IC50 for KLK1; format: biochemical; details: 37° C., fluorogenic substrate H-DVal-Leu-Arg-AFC
Experimental: KLK1 inhibitory activity in vitro was determined using standard published methods (see e.g. Johansen et al., Int. J. Tiss. Reac. 1986, 8, 185; Shori et al., Biochem. Pharmacol., 1992, 43, 1209; Stürzebecher et al., Biol. Chem. Hoppe-Seyler, 1992, 373, 1025). Human KLK1 (Callbiochem) was incubated at 37° C. with the fluorogenic substrate H-DVal-Leu-Arg-AFC and various concentrations of the test compound. Residual enzyme activity (initial rate of reaction) was determined by measuring the change in optical absorbance at 410 nm and the IC50 value for the test compound was determined.

Human plasma kallikrein = Human plasma kallikrein (Homo sapiens (Human), UniProt P03952); experiment: Determination of the IC50 for plasma kallikrein; format: biochemical; details: 37° C., fluorogenic substrate H-DPro-Phe-Arg-AFC; read-out: IC50 (human PKal)
Experimental: Human plasma kallikrein (Protogen) was incubated at 37° C. with the fluorogenic substrate H-DPro-Phe-Arg-AFC and various concentrations of the test compound. Residual enzyme activity (initial rate of reaction) was determined by measuring the change in optical absorbance at 410 nm and the IC50 value for the test compound was determined.

Sequence of Human KLK1 (P06870 25-262): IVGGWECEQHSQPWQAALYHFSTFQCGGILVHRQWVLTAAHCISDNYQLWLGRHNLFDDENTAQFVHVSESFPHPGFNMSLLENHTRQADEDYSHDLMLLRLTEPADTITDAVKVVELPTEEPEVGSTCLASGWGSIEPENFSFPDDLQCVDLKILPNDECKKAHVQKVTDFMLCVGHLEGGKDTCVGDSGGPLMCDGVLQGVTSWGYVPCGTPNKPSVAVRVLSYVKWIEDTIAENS
Sequence of Human plasma kallikrein (P03952 391-638): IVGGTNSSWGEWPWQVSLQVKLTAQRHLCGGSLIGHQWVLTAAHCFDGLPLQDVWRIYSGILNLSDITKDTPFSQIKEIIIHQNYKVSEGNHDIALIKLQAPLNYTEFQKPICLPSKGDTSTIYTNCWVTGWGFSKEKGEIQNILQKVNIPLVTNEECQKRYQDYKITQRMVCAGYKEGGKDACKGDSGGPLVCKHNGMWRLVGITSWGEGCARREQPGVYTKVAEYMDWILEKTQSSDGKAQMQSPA
Sequence of Human plasma kallikrein (P03952 20-390 partner): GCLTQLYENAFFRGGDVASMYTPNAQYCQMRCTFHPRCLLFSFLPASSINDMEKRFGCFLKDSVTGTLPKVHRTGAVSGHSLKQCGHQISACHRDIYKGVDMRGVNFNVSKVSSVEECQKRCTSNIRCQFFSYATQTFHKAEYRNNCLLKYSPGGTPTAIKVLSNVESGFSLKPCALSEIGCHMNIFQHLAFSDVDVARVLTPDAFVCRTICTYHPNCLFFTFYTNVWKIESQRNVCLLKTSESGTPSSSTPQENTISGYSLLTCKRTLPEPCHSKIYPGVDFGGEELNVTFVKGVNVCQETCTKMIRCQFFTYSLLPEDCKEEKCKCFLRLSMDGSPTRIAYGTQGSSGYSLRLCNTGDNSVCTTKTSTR

SMILES	IC50 (trypsin) [µM]	IC50 (Human KLK1) [µM]	IC50 (Human plasma kallikrein) [nM]	other results
N=C(N)c1ccc(CNC(=O)c2cnn(Cc3ccccc3)c2)cc1 [ASP-440]				retinal vascular permeability and retinal blood flow abnormalities (diabetic rats): ameliorated
NCc1ccc(CNC(=O)c2cn(Cc3ccccc3)nc2-c2ccccc2)cc1 [Example 84, 1-Benzyl-3-phenyl-1H-pyrazole-4-carboxylic acid 4-aminomethyl-benzylamide]	> 40			
Cc1cc(C(=O)NCc2ccc(CN)cc2)c(C)n1Cc1csc(-c2ccccc2)n1 [Example 1, 2,5-Dimethyl-1-(2-phenyl-thiazol-4-ylmethyl)-1H-pyrrole-3-carboxylic acid 4-aminomethyl-benzylamide]	> 40			
Cc1cc(C(=O)NCc2ccc(CN)cc2)c(C)n1Cc1cc(-c2ccccc2)cs1 [Example 9, 2,5-Dimethyl-1-(4-phenyl-thiophen-2-ylmethyl)-1H-pyrrole-3-carboxylic acid 4-aminomethyl-benzylamide]		> 10	543	
Cc1cc(CN)ccc1CNC(=O)c1cc(C)n(Cc2csc(-c3ccccc3)n2)c1C [Example 2, 2,5-Dimethyl-1-(2-phenyl-thiazol-4-ylmethyl)-1H-pyrrole-3-carboxylic acid 4-aminomethyl-2-methyl-benzylamide]	> 40			
Cc1cc(C(=O)NCc2ccc(CN)cc2)c(C)n1Cc1csc(-c2ccoc2)n1 [Example 39, 2,5-Dimethyl-1-(2-furan-3-yl-thiazol-4-ylmethyl)-1H-pyrrole-3-carboxylic acid 4-aminomethyl-benzylamide]		> 10	1090	
NCc1ccc(CNC(=O)c2cn(Cc3csc(-c4ccccc4)n3)nc2C(F)(F)F)cc1 [Example 83, 1-(2-Phenyl-thiazol-4-ylmethyl)-3-trifluoromethyl-1H-pyrazole-4-carboxylic acid 4-aminomethyl-benzylamide]	26.6			
Cc1cc(C(=O)NCc2ccc(CN)cc2)c(C)n1Cc1ccc(-c2ccncc2)s1 [Example 21, 2,5-Dimethyl-1-(5-pyridin-4-yl-thiophen-2-ylmethyl)-1H-pyrrole-3-carboxylic acid 4-aminomethyl-benzylamide]		7.5	4520	
